The values that follow come from paper PMC9856672, “SGC-CAMKK2-1: A Chemical Probe for CAMKK2” (Cells, 2023).

Experiment [1] deals with T1, RSK4(Kin.Dom.2-C-terminal) (Homo sapiens, UniProt Q9UK32).
T1 construct: RSK4(Kin.Dom.2-C-terminal); purchased Eurofins DiscoverX KINOMEscan
The experiment can be described thus: DiscoverX KINOMEscan binding assay at 1 μM, RSK4(Kin.Dom.2-C-terminal). As to conditions: RSK4(Kin.Dom.2-C-terminal) (RPS6KA6); Compound Concentration 1000 nM; read-out: Percent Control. An excerpt:
(§1) Supplement cells-12-00287-s001.zip/File S2. KinomeScan data for the CAMKK2 probe and negative control.xlsx, sheet "SGC-CAMKK2-1" | column: Percent Control

Experiment [2] concerns the target T2, PRKG2 (Homo sapiens, UniProt Q13237).
T2 construct: purchased Eurofins DiscoverX KINOMEscan
Nature of the experiment: KINOMEscan 1 μM, PRKG2. It is filed as binding. As to conditions: 1000 nM; Entrez PRKG2; read-out: Percent Control.
Text: as §1

For experiment [3], the target named is T3, MAPKAPK5 (Homo sapiens, UniProt Q8IW41).
T3 construct: purchased Eurofins DiscoverX KINOMEscan
The experiment can be described thus: KINOMEscan 1 μM, MAPKAPK5. It is filed as binding. As to conditions: 1000 nM; Entrez MAPKAPK5; read-out: Percent Control.
Text: as §1

The target of experiment [4] is T4, PRKCE (Homo sapiens, UniProt Q02156).
T4 construct: purchased Eurofins DiscoverX KINOMEscan
The experiment can be described thus: KINOMEscan 1 μM, PRKCE. It is filed as binding. As to conditions: 1000 nM; Entrez PRKCE; read-out: Percent Control.
Text: as §1

For experiment [5], the target named is T5, IRAK3 (Homo sapiens, UniProt Q9Y616).
T5 construct: purchased Eurofins DiscoverX KINOMEscan
T5 sequence (Q9Y616 whole entry): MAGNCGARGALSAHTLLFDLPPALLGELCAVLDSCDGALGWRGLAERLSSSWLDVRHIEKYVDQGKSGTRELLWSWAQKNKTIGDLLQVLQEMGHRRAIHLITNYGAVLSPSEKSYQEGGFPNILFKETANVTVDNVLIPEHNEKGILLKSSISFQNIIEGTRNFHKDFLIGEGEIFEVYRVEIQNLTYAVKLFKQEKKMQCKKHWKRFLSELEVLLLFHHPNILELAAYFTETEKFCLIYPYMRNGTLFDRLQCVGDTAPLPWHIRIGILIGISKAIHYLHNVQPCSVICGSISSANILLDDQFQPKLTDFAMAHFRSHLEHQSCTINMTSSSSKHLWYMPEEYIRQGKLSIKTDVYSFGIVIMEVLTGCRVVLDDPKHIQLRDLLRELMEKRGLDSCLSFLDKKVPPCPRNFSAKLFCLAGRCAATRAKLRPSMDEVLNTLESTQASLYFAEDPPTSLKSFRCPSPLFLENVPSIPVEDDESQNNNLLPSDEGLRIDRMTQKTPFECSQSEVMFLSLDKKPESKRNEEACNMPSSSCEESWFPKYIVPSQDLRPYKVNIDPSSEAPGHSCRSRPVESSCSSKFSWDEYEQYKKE
Nature of the experiment: KINOMEscan 1 μM, IRAK3. It is filed as binding. As to conditions: 1000 nM; Entrez IRAK3; read-out: Percent Control.
Text: as §1

Experiment [6] deals with T6, NLK (Homo sapiens, UniProt Q9UBE8).
T6 construct: purchased Eurofins DiscoverX KINOMEscan
Nature of the experiment: KINOMEscan 1 μM, NLK. It is filed as binding. As to conditions: 1000 nM; Entrez NLK; read-out: Percent Control.
Text: as §1

Experiment [7] addresses T7, FLT3 (Homo sapiens, UniProt P36888).
T7 construct: purchased Eurofins DiscoverX KINOMEscan
The experiment can be described thus: KINOMEscan 1 μM, FLT3. The class given is binding. As to conditions: 1000 nM; Entrez FLT3; read-out: Percent Control.
Text: as §1

In experiment [8] the target is T8, FLT3(D835H) (Homo sapiens, UniProt P36888, D835H).
T8 construct: purchased Eurofins DiscoverX KINOMEscan
The experiment can be described thus: KINOMEscan 1 μM, FLT3(D835H). It is filed as binding. As to conditions: 1000 nM; Entrez FLT3; read-out: Percent Control.
Text: as §1

The target in experiment [9] is T9, ABL1(F317I)-phosphorylated (Homo sapiens, UniProt P00519, F317I).
T9 construct: purchased Eurofins DiscoverX KINOMEscan
T9 sequence (P00519 whole entry F317I): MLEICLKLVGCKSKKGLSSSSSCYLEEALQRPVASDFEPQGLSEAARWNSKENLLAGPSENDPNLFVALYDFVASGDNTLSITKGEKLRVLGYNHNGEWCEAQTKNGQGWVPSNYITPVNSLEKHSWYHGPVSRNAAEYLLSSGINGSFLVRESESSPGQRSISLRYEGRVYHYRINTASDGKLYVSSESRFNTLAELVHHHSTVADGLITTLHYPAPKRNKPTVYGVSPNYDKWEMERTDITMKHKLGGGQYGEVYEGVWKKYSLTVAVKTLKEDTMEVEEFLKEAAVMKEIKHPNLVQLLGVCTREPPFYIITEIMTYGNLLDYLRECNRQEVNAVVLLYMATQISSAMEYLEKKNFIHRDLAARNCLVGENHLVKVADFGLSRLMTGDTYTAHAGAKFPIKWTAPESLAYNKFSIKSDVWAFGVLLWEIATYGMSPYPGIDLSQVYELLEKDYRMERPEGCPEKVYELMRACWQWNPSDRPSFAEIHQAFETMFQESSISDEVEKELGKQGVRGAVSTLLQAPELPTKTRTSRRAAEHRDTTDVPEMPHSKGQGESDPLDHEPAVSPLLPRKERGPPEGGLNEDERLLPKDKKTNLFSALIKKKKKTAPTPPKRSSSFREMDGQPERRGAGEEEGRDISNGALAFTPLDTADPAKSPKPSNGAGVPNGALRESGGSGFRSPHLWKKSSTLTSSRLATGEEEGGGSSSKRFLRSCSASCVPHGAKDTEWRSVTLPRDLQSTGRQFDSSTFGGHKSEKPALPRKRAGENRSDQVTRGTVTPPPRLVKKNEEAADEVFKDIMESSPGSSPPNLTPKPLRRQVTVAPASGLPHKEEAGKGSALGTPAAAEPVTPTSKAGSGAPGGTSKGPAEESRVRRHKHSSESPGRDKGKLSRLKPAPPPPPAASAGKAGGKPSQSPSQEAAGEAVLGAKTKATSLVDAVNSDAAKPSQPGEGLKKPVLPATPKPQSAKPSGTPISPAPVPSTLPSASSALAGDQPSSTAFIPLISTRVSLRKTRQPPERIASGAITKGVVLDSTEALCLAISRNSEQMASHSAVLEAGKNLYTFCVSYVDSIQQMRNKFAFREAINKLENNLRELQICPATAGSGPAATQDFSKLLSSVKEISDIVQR
The experiment can be described thus: KINOMEscan 1 μM, ABL1(F317I)-phosphorylated. As to conditions: 1000 nM; Entrez ABL1; read-out: Percent Control. It is filed as binding.
Text: as §1

The target of experiment [10] is T10, JAK1(JH2domain-pseudokinase) (Homo sapiens, UniProt P23458).
T10 construct: JAK1(JH2domain-pseudokinase); purchased Eurofins DiscoverX KINOMEscan
T10 sequence (P23458 583-855 limits assumed): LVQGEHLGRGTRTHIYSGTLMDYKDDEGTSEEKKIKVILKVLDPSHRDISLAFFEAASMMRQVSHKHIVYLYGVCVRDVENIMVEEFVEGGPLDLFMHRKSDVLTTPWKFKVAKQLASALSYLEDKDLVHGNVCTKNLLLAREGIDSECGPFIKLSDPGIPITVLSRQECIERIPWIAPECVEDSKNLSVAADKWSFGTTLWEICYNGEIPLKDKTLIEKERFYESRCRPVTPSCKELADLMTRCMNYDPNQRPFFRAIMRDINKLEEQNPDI
Nature of the experiment: KINOMEscan 1 μM, JAK1(JH2domain-pseudokinase). The class given is binding. As to conditions: 1000 nM; Entrez JAK1; read-out: Percent Control.
Text: as §1

Experiment [11] addresses T11, ABL1-phosphorylated (Homo sapiens, UniProt P00519).
T11 construct: purchased Eurofins DiscoverX KINOMEscan
The experiment can be described thus: KINOMEscan 1 μM, ABL1-phosphorylated. It is filed as binding. As to conditions: 1000 nM; Entrez ABL1; read-out: Percent Control.
Text: as §1

In experiment [12] the target is T12, ALK (Homo sapiens, UniProt Q9UM73).
T12 construct: purchased Eurofins DiscoverX KINOMEscan
Nature of the experiment: KINOMEscan 1 μM, ALK. It is filed as binding. As to conditions: 1000 nM; Entrez ALK; read-out: Percent Control.
Text: as §1

The target in experiment [13] is T13, ADCK3 (Homo sapiens, UniProt Q8NI60).
T13 construct: purchased Eurofins DiscoverX KINOMEscan
Nature of the experiment: KINOMEscan 1 μM, ADCK3. It is filed as binding. As to conditions: 1000 nM; Entrez CABC1; read-out: Percent Control.
Text: as §1

In experiment [14] the target is T14, AKT3 (Homo sapiens, UniProt Q9Y243).
T14 construct: purchased Eurofins DiscoverX KINOMEscan
The experiment can be described thus: KINOMEscan 1 μM, AKT3. The class given is binding. As to conditions: 1000 nM; Entrez AKT3; read-out: Percent Control.
Text: as §1

Experiment [15] addresses T15, TTK (Homo sapiens, UniProt P33981).
T15 construct: purchased Eurofins DiscoverX KINOMEscan
Nature of the experiment: DiscoverX KINOMEscan binding assay at 1 μM, TTK. As to conditions: Compound Concentration 1000 nM, read-out: Percent Control.
Text: as §1

Experiment [16] has as its target T16, NDR2 (Homo sapiens, UniProt Q9Y2H1).
T16 construct: purchased Eurofins DiscoverX KINOMEscan
Nature of the experiment: KINOMEscan 1 μM, NDR2. It is filed as binding. As to conditions: 1000 nM; Entrez STK38L; read-out: Percent Control.
Text: as §1

Experiment [17] has as its target T17, CDC2L2 (Homo sapiens, UniProt Q9UQ88).
T17 construct: purchased Eurofins DiscoverX KINOMEscan
Nature of the experiment: KINOMEscan 1 μM, CDC2L2. It is filed as binding. As to conditions: 1000 nM; Entrez CDC2L2; read-out: Percent Control.
Text: as §1

In experiment [18] the target is T18, PKAC-alpha (Homo sapiens, UniProt P17612).
T18 construct: purchased Eurofins DiscoverX KINOMEscan
Nature of the experiment: KINOMEscan binding assay at 1 μM, PKAC-alpha. As to conditions: Compound Concentration 1000 nM; read-out: Percent Control. An excerpt:
(§2) Supplement cells-12-00287-s001.zip/File S2. KinomeScan data for the CAMKK2 probe and negative control.xlsx, sheet "SGC-CAMKK2-1N" | column: Percent Control

The target of experiment [19] is T19, BRAF (Homo sapiens, UniProt P15056).
T19 construct: purchased Eurofins DiscoverX KINOMEscan
The experiment can be described thus: KINOMEscan at 1 μM, BRAF. It is filed as binding. As to conditions: 1000 nM, read-out: Percent Control.
Text: as §2

The target in experiment [20] is T20, CLK1 (Homo sapiens, UniProt P49759).
T20 construct: purchased Eurofins DiscoverX KINOMEscan
The experiment can be described thus: KINOMEscan at 1 μM, CLK1. The class given is binding. As to conditions: 1000 nM, read-out: Percent Control.
Text: as §2

Experiment [21] has as its target T21, CAMK2G (Homo sapiens, UniProt Q13555).
T21 construct: purchased Eurofins DiscoverX KINOMEscan
Nature of the experiment: KINOMEscan at 1 μM, CAMK2G. It is filed as binding. As to conditions: 1000 nM, read-out: Percent Control.
Text: as §2

In experiment [22] the target is T22, EGFR(G719S) (Homo sapiens, UniProt P00533, G719S).
T22 construct: purchased Eurofins DiscoverX KINOMEscan
Nature of the experiment: KINOMEscan binding assay at 1 μM, EGFR(G719S). As to conditions: Compound Concentration 1000 nM; read-out: Percent Control.
Text: as §2

Experiment [23] deals with T23, ERBB4 (Homo sapiens, UniProt Q15303).
T23 construct: purchased Eurofins DiscoverX KINOMEscan
Nature of the experiment: KINOMEscan at 1 μM, ERBB4. It is filed as binding. As to conditions: 1000 nM, read-out: Percent Control.
Text: as §2

The target in experiment [24] is T24, VPS34 (Homo sapiens, UniProt Q8NEB9).
T24 construct: purchased Eurofins DiscoverX KINOMEscan
T24 sequence (Q8NEB9 whole entry): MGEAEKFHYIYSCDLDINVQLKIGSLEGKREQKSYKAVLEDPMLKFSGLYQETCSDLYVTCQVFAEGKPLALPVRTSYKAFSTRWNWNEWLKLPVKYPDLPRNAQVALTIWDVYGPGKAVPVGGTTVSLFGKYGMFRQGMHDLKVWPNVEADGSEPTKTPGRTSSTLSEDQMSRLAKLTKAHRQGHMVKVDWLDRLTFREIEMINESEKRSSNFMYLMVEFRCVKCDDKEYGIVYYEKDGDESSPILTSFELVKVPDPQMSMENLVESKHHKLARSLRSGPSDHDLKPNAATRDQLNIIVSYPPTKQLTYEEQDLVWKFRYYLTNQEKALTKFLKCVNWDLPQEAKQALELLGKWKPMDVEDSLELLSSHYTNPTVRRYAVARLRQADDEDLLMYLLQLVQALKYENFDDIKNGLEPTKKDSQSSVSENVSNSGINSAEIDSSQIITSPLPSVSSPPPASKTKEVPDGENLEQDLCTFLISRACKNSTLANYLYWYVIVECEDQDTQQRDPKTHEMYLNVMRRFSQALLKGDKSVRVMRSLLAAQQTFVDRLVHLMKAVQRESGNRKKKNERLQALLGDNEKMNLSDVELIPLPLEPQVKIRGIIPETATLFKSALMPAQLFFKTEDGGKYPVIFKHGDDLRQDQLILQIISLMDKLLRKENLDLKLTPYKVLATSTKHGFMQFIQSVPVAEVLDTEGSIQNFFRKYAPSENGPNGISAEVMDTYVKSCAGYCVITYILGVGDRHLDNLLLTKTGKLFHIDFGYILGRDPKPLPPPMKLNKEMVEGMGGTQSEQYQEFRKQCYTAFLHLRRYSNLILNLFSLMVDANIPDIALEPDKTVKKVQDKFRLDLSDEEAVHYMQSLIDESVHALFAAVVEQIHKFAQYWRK
Nature of the experiment: KINOMEscan at 1 μM, VPS34. The class given is binding. As to conditions: 1000 nM, read-out: Percent Control.
Text: as §2

Experiment [25] has as its target T25, MST1R (Homo sapiens, UniProt Q04912).
T25 construct: purchased Eurofins DiscoverX KINOMEscan
The experiment can be described thus: KINOMEscan at 1 μM, MST1R. As to conditions: 1000 nM, read-out: Percent Control. It is filed as binding.
Text: as §2

In experiment [26] the target is T26, TRKA (Homo sapiens, UniProt P04629).
T26 construct: purchased Eurofins DiscoverX KINOMEscan
Nature of the experiment: KINOMEscan at 1 μM, TRKA. It is filed as binding. As to conditions: 1000 nM, read-out: Percent Control.
Text: as §2

Experiment [27] concerns the target T27, BRSK1 (Homo sapiens, UniProt Q8TDC3).
T27 construct: purchased Eurofins DiscoverX KINOMEscan
Nature of the experiment: KINOMEscan at 1 μM, BRSK1. The class given is binding. As to conditions: 1000 nM, read-out: Percent Control.
Text: as §2

Experiment [28] has as its target T28, TRKB (Homo sapiens, UniProt Q16620).
T28 construct: purchased Eurofins DiscoverX KINOMEscan
The experiment can be described thus: KINOMEscan at 1 μM, TRKB. As to conditions: 1000 nM, read-out: Percent Control. It is filed as binding.
Text: as §2

The target in experiment [29] is T29, PKAC-beta (Homo sapiens, UniProt P22694).
T29 construct: purchased Eurofins DiscoverX KINOMEscan
Nature of the experiment: KINOMEscan binding assay at 1 μM, PKAC-beta. As to conditions: Compound Concentration 1000 nM; read-out: Percent Control.
Text: as §2

The target of experiment [30] is T30, CDK8 (Homo sapiens, UniProt P49336).
T30 construct: purchased Eurofins DiscoverX KINOMEscan
T30 sequence (P49336 whole entry): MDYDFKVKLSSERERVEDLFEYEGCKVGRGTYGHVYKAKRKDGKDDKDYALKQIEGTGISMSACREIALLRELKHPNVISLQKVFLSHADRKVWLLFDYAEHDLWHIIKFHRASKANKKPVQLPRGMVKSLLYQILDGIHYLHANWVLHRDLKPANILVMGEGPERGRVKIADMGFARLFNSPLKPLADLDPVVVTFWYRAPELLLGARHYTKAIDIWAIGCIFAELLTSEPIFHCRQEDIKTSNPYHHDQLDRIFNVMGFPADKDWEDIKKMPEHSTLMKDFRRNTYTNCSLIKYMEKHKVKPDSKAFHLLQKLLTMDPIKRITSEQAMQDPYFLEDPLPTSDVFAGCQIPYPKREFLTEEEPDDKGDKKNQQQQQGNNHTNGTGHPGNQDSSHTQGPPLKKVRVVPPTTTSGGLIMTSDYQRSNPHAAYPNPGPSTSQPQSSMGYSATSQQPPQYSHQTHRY
The experiment can be described thus: KINOMEscan at 1 μM, CDK8. As to conditions: 1000 nM, read-out: Percent Control. The class given is binding.
Text: as §2

Experiment [31] concerns the target T31, TSSK3 (Homo sapiens, UniProt Q96PN8).
T31 construct: purchased Eurofins DiscoverX KINOMEscan
Nature of the experiment: KINOMEscan at 1 μM, TSSK3. The class given is binding. As to conditions: 1000 nM, read-out: Percent Control.
Text: as §2

The target in experiment [32] is T32, TNIK (Homo sapiens, UniProt Q9UKE5).
T32 construct: purchased Eurofins DiscoverX KINOMEscan
The experiment can be described thus: KINOMEscan at 1 μM, TNIK. The class given is binding. As to conditions: 1000 nM, read-out: Percent Control.
Text: as §2

Experiment [33] addresses T33, MUSK (Homo sapiens, UniProt O15146).
T33 construct: purchased Eurofins DiscoverX KINOMEscan
The experiment can be described thus: KINOMEscan binding assay at 1 μM, MUSK. As to conditions: Compound Concentration 1000 nM; read-out: Percent Control.
Text: as §2

T17 sequence (Q9UQ88 whole entry): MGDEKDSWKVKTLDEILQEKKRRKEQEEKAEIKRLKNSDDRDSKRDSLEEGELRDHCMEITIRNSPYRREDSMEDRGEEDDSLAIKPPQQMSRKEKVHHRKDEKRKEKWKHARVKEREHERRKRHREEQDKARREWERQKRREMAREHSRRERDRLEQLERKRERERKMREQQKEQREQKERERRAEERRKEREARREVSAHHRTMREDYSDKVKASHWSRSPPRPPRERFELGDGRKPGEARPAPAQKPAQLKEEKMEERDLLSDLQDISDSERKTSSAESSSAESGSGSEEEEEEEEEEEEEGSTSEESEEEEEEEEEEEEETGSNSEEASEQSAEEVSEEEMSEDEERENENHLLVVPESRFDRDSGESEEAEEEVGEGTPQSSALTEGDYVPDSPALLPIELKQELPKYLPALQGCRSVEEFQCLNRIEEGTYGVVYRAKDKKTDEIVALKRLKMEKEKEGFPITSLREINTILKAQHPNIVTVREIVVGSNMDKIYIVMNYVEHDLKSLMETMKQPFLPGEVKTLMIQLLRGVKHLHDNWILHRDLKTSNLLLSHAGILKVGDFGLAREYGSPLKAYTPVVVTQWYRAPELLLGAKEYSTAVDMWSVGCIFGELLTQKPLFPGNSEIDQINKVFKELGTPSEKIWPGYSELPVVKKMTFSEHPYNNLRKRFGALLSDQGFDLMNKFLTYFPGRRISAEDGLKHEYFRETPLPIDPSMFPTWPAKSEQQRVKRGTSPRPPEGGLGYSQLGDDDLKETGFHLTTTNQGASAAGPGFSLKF
T11 sequence (P00519 whole entry): as the sequence (P00519 whole entry F317I) above, with I317F counted along it
T2 sequence (Q13237 whole entry): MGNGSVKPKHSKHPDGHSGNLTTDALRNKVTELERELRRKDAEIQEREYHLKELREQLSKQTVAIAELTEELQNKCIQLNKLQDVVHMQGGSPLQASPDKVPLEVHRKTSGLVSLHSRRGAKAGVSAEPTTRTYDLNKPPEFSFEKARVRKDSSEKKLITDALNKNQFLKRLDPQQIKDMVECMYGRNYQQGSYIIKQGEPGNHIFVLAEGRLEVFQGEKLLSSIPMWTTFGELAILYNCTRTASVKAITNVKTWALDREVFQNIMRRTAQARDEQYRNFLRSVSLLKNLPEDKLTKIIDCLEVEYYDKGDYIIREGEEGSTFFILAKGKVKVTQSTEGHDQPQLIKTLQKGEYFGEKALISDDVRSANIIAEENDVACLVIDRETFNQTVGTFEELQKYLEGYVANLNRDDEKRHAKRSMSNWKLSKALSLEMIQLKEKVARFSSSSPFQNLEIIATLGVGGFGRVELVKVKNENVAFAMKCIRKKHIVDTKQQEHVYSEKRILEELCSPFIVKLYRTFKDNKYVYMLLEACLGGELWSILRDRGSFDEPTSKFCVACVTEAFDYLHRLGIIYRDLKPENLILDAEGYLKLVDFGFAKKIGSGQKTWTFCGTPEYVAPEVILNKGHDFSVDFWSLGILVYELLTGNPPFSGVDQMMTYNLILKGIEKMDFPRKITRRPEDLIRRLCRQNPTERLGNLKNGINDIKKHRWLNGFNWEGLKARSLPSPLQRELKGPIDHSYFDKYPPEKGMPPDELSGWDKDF

For `Cc1cccc(-c2cnc3occ(-c4ccc(C(=O)O)c(C5CCCC5)c4)c3c2)c1` [SGC-CAMKK2-1 (YL-36)], the remaining binding at 1 µM was 100% in experiment [1]; 99% in [2]; 100% in experiment [3]; 90% in [4]; 88% in [5]; 81% in experiment [6]. In addition, the remaining binding at 1 µM was determined as 80% in experiment [7]; 87% in [8]; 100% in [9]; 90% in experiment [10]; 98% in experiment [11]; 100% in experiment [12]. The remaining binding at 1 µM in experiment [13] came to 100%; in [14], 100%; in [15], 100%; in [16] it was 100%; in experiment [17], 84%.

Regarding `O=C(O)c1ccc(-c2coc3ncc(-c4ccccc4)cc23)cc1Cl` [SGC-CAMKK2-1N (UNC-YL-83)], the remaining binding at 1 µM in experiment [18] amounted to 100%; in [19], 84%; in experiment [20], 79%; in experiment [21], 85%; in experiment [22], 100%; in [23] it was 83%. The remaining binding at 1 µM in experiment [24] is 44%; in [25], 98%; in experiment [26], 38%; in experiment [27] it was 92%; in experiment [28], 81%; in [29], 100%. The remaining binding at 1 µM in experiment [30] was 100%; in experiment [31], 65%; in experiment [32], 73%; in experiment [33] it was 100%.
